Assay [1] concerns HT1080 tumor xenografts. Nature of the assay: Immunohistochemical analysis of tumor xenografts (pimonidazole, cleaved caspase-3). The assay is classed as in vivo, mice. Conditions: three doses, 50 mg/kg. The protocol: Tumor-bearing mice were injected i.p. with hypoxyprobe (50 mg/kg) 1 hour prior to sacrifice. Mice were euthanised under anesthesia by cervical dislocation, and tumors were surgically resected, embedded in OCT compound (Sakura Tissue Tek), and frozen at −80° C. Tumors were sectioned at 8 μm, fixed in 4% paraformaldehyde, and blocked in PBS-4% BSA. Tissue sections were incubated overnight in block solution containing antisera specific for hypoxyprobe (1:250) and cleaved caspase-3 (1:400). Slides were washed three times with block solution and incubated for 2 hours at room temperature with anti-mouse Alexa 488 or anti-rabbit Alexa 594 (Invitrogen, San Diego, Calif.). Slides were washed five times in block solution, and coverslips mounted with Permount supplemented with DAPI.
Immunohistochemical analysis of tumor xenografts. […] D. Quantification of tumor immunohistochemistry. At least 8 randomly chosen fields (>300 cells/field) per tumor were scored for pimonidazole and cleaved caspase-3 staining. A minimum of 3 tumors (250-300 mm^3 at harvest) were analyzed per treatment group. […]
We further examined tumors from control and irestatin-treated mice for differences in cell survival. […] The increase in apoptosis was most pronounced in hypoxic tissue regions of tumors, as determined by co-immunoreactivity for pimonidazole adducts (FIG. 14C, bottom panel). […]

The test system of assay [2] is XBP-luciferase reporter. Nature of the assay: XBP-luciferase reporter assay under Tm or hypoxia, HT1080 cells. It counts as cell-based, human. The protocol: HT1080 cells stably expressing the XBP-luciferase construct were grown in 60 mm dishes to 60-70% confluency. Following hypoxia treatment, cells were washed twice with PBS, lysed in 400 μl 1× reporter lysis buffer (RLB) (Promega, Madison Wis.) for 30 min at 24° C. Lysates (100 μl) were mixed with an equal volume of luciferase substrate (Promega), and assayed using a luminometer. For 5×-UPRE-luciferase reporter assays, cells were co-transfected with the appropriate reporter plasmid and a control plasmid (pSV40-beta-gal) using Lipofectamine 2000 (Invitrogen, San Diego, Calif.). Twenty-four hours after transfection, fresh media was added, and cells were treated with Tm or shifted to hypoxia. After treatment, cells were lysed in 1×RLB and analyzed for luciferase activity as described above. Beta-galactosidase activity was determined using the beta-galactosidase enzyme assay system (Promega).
A. XBP-luciferase reporter construct. Firefly luciferase was inserted downstream of the IRE1α splice site in human XBP-1 to enable the conditional translation of luciferase under ER stress in an IRE1α-dependent manner. B. Selective inhibition of the XBP-luciferase reporter by irestatin 9389. HT1080 human fibrosarcoma cells stably expressing the XBP-luciferase reporter or CMV-luciferase were cultured in the presence of Tm (4 μg/ml) and Tg (0.4 μM) and irestatin 9389 at the indicated concentrations. After 24 hours, luciferase activity was analyzed in an automated plate reader. For each cell line, values are expressed as the percent inhibition of the median for Tm/Tg-treated wells, corrected for background. C. Structure of irestatin 9389. D. XBP-luciferase reporter assay. HT1080 cells stably expressing the XBP-luciferase reporter were exposed to Tm (4 μg/ml) for 24 hours or hypoxia (0.1% oxygen) for 24 or 48 hours, in the presence of DMSO or irestatin 9389 (1 μM) as indicated. Values are expressed as the fold increases over uninduced levels. E. 5×-UPRE reporter assay. HT1080 cells were co-transfected with 5×-UPRE luciferase and SV40-beta-gal reporter plasmids, followed by exposure to Tm or hypoxia as in D. For each condition, luciferase activity is normalized to beta-galactosidase expression levels as an internal control for transfection efficiency. F. Western immunoblot analysis of XBP-1s. HT1080 cells were left untreated (lane 2) or exposed to Tm (4 μg/ml) for 20 hours in the presence of DMSO vehicle (lane 1) or the indicated irestatins (2 μM; lanes 3-6). […] Cells were harvested, lysed, and analyzed by immunoblotting with antisera specific for HIF-1α (top), XBP-1s (middle) or actin (bottom). […] Total RNA was analyzed by Northern blotting using radiolabeled probes specific for P58^IPK or DER-1. […]

On to `Cc1csc(NC(=O)CSc2nc3c(c(C(F)(F)F)c2C#N)CCC3)n1` [Compound 9389], for which the “cleaved caspase-3 in tumors relative to vehicle” value in assay [1] was “significant increase in cleaved caspase-3”. The “apoptotic fraction of hypoxic cells in tumors” value in assay [1] (cleaved caspase-3 in pimonidazole-positive cells) is given as around 45%. For the same compound, in assay [2] (1 μM, 48 hours of hypoxia (control 95-fold)), the “hypoxia-induced increase of XBP-luciferase activity” value was “robustly inhibited this response”. Also, in assay [2] (1 μM, hypoxia (<0.1% oxygen) for 24 or 48 hours), the “activation of the XBP-luciferase reporter under hypoxia” value was “diminished activation”. Also, the inhibition (usually the drop in the measured response relative to a control, in per cent) at 1 µM in assay [2] (Homo sapiens, HT-1080, irestatin 9389 1 μM, Tm 24 hours, read-out: inhibition of Tm-mediated activation of the XBP-luciferase reporter) is above 90%.

For the origin of these results see patent publication US20130150399A1, “INHIBITORS OF THE UNFOLDED PROTEIN RESPONSE AND METHODS FOR THEIR USE” (The Board of Trustees of the Leland Stanford Junior …, priority 2006, published 2013).
